# According to PMC6080416, “Spectroscopic Studies as a Toolbox for Biophysical and Chemical Characterization of Lipid-Based Nanotherapeutics” (Frontiers in Chemistry, 2018):
# Assay: Fluorescence quenching of n-AS probes in MLVs of EPC (drug location)
# Assay type: physicochemical
# Conditions: MLVs of EPC labeled with n-AS probes
# Method: Three independent experiments were carried out.
# This type of fluorescence quenching can be described by the Stern-Volmer linear plots (Equation 5 and Figures 7A,B) where the fluorescence emission intensities of the labeled nanocarrier in the absence (I0) and in the presence (I) of the quencher (drugs) are plotted against the quencher concentration [Q] and it is possible to obtain linear relations in which the intercept is zero and the slope corresponds to Stern-Volmer constant, KSVapp (Lakowicz, [2014]):
# The Stern-Volmer plots of the fluorescence quenching provoked by increasing concentrations of Indomethacin are not linear and present positive deviations (Figure 7C). Positive deviations from the Stern-Volmer equation are often observed when the extent of quenching is large and these deviations from linearity indicate that the quenching mechanism cannot be explained solely by a collisional mechanism (Lakowicz, [2014]). There is an apparent static quenching component caused by the close proximity of deactivating drug and fluorophore at excitation moment. The quenching is still collisional, but the existence of fluorophores and quenchers located very close to each other causes an immediate fluorescence deactivation and therefore the fluorophore and the drug appear to form non-fluorescent complexes (Lakowicz, [2014]). This type of fluorescence quenching is usually interpreted in terms of a “sphere of action” (Equation 7) within which the possibility of deactivation is equal to unity (Lakowicz, [2014]).
# (7) I0/I=(1+KSVapp[Q])e^[Q]Vapp
# By representing graphically I0/(Ie^[Q]Vapp) as a function of [Q], linear relations were obtained in which the slope corresponds to KSVapp (Figure 7D). Thus, Indomethacin quenching efficiency followed approximately the same order as that obtained for Acemetacin: 2-AS < 6-AS < 9-AS < 12-AS.
row,Structure (SMILES),Drug location within the lipid nanocarrier inferred from Kqapp
1,COc1ccc2c(c1)c(CC(=O)O)c(C)n2C(=O)c1ccc(Cl)cc1 [Indomethacin],able to reach a more inner location within the lipid nanocarrier
2,COc1ccc2c(c1)c(CC(=O)OCC(=O)O)c(C)n2C(=O)c1ccc(Cl)cc1 [Acemetacin],can reach an inner location at the lipid nanocarrier
3,Cc1ccc(C(=O)c2ccc(CC(=O)O)n2C)cc1 [Tolmetin],preferential location of Tolmetin at the polar headgroup region of the lipid nanocarriers
